In US20230158084A1, “PROBIOTICS, METABOLITES, AND USES THEREOF” (California Institute of Technology, priority 2018, published 2023):
Entries after “also recorded” stand apart in the source; their conditions may differ.

Key:
Format in all cases: in vivo, mouse
BTBR mice = experiment: ASD-related behaviors overall (marble burying, direct social interaction, open field) in BTBR mice; conditions: for ASD-related behaviors, administration post weaning: BTBR mice, 10 mM in drinking water to juvenile mice starting 3-4 weeks of age through adulthood; for ASD-related behaviors / symptoms, prenatal administration: BTBR mouse model, 10 mM orally in drinking water from before mating (conception) through adulthood
Protocol: FIGS. 5A-D are a series of drawings illustrating that differential metabolites impact ASD-relevant behaviors in SPF mice in accordance with some embodiments herein. FIG. 5A: The abundance of select metabolites in the offspring microbiome is correlated with behavior of male offspring. Spearman correlation between the microbiome and mouse behavior, by donor (See FIGS. 1A-0). […] Color scale denotes Spearman ρ. […] Groups of mice were orally administered 10 mM Taurine or 5AV in drinking water before mating, and throughout their lifetime. Offspring were tested by marble burying, direct social interaction, and open field tests, and compared to untreated vehicle controls. Results are aggregated from 2 independent experiments. NControl=42, […]=52, NTaurine=36. Bar plots denote mean and S.E.M. Hypothesis on differences in means were tested by ANOVA on trimmed means (10%) and subsequent posthoc tests. FIGS. 5E-L: qPCR of BTBR brains after 5AV and taurine administration. Results are aggregated from 2 independent experiments. Hypothesis on differences in means were tested by ANOVA on trimmed means (10%) and subsequent posthoc tests. FIGS. 5M-V: series of graphs illustrating E18 B6 feeding 5AV and Taurine targeted metabolomics. […] In FIGS. 9A-K, mice were orally administered 10 mM Taurine or 5AV in drinking water starting 3-4 weeks of age mating, and throughout their lifetime. Offspring were tested by marble burying, direct social interaction, and open field tests, and compared to untreated vehicle controls. Results are aggregated from 2 independent experiments. NControl=20, […]=18, NTaurine=20. Bar plots denote mean and S.E.M. hypothesis on differences means were tested by ANOVA on trimmed means (10%) and subsequent posthoc tests. FIGS. 9L-Q illustrate basal properties of L5 pyramidal neurons in the mPFC. […] Taurine was orally administered to BTBR mice, a validated mouse model for ASD (McFarlane et al., 2008), from conception through adulthood to capture both prenatal and postnatal neurodevelopmental periods. […] It is will appreciated that the blood-brain barrier comprises endothelial cells, and selectively permits the movement of substances between circulating blood and the brain, for example permitting some molecules to pass from the blood to the brain, while preventing other molecules from passing from the blood to the brain. As such, it will be appreciated that at a given stage of development, some molecules may readily pass through the blood brain barrier, while others may not.

[1] = test system: lncRNAs and ASD-relevant isoforms in the STR and PFC of BTBR mice; experiment: qPCR of BTBR brains after 5AV and taurine administration; conditions: adult metabolite-treated BTBR mice
Description: FIGS. 5A-D are a series of drawings illustrating that differential metabolites impact ASD-relevant behaviors in SPF mice in accordance with some embodiments herein. FIG. 5A: The abundance of select metabolites in the offspring microbiome is correlated with behavior of male offspring. Spearman correlation between the microbiome and mouse behavior, by donor (See FIGS. 1A-0). Benjamini-Hochberg adjusted p-values (α≤0.05) for significant correlations are noted. Color scale denotes Spearman ρ. […] Groups of mice were orally administered 10 mM Taurine or 5AV in drinking water before mating, and throughout their lifetime. Offspring were tested by marble burying, direct social interaction, and open field tests, and compared to untreated vehicle controls. Results are aggregated from 2 independent experiments. NControl=42, N5AV=52, NTaurine=36. Bar plots denote mean and S.E.M. Hypothesis on differences in means were tested by ANOVA on trimmed means (10%) and subsequent posthoc tests. FIGS. 5E-L: qPCR of BTBR brains after 5AV and taurine administration. Results are aggregated from 2 independent experiments. Hypothesis on differences in means were tested by ANOVA on trimmed means (10%) and subsequent posthoc tests. FIGS. 5M-V: series of graphs illustrating E18 B6 feeding 5AV and Taurine targeted metabolomics.
In view of the results described herein, it was further hypothesized that 5AV and taurine exert their effects on behavioral outcomes by altering expression patterns in the brain. To address this hypothesis, brains were collected from adult metabolite-treated BTBR mice and relative expression was quantified for select genes and isoforms that are differentially expressed between TD- and ASD-colonized offspring (FIGS. 3A-J). […] To test whether the expression of splice variants containing exons highlighted by rMATs analysis (see FIG. 3B, Tables 2.1-2.3), isoforms of interest were identified, which contain or exclude exons implicated by the analysis. […] Therefore, treatment with 5AV and taurine according to some embodiments affects the expression of lncRNAs and of specific ASD-relevant isoforms in the brains of BTBR mice treated throughout their lives.

[2] = test system: pyramidal neurons in the L5 of the mPFC; experiment: Electrophysiology in acute slices from treated BTBR mice (mEPSC, mIPSC, excitability); conditions: BTBR mice given 10 mM in drinking water starting 3-4 weeks of age
Protocol: FIGS. 8A-E are a series of graphs illustrating effects of microbial metabolites on brain activity of mice in accordance with some embodiments herein. Mice were orally administered 10 mM Taurine or 5AV in drinking water starting 3-4 weeks of age mating, and throughout their lifetime. FIG. 8A illustrates effects on amplitude and frequency of mEPSCs in pyramidal neurons in the L5 of the mPFC in acute slices from BTBR mice treated with 5AV, Taurine, or control. FIG. 8B illustrates effects on amplitude and frequency of mIPSCs in pyramidal neurons in the L5 of the mPFC in acute slices from BTBR mice treated with 5AV, Taurine, or control. Hypotheses for FIGS. 8A-B were tested by ANOVA on trimmed means (10%) and subsequent post-hoc tests. FIG. 8C illustrates effects on excitability of pyramidal neurons in the L5 of the mPFC in acute slices from BTBR mice treated with 5AV, Taurine, or control in response to step-wise injection current, as measured by the number of action potential spikes. 2-way ANOVA. BTBR mice were orally administered 10 mM Taurine or 5AV in drinking water starting 3-4 weeks of age mating, and throughout their lifetime, and effects on the brain were observed. FIG. 8A illustrates effects on amplitude and frequency of mEPSCs in pyramidal neurons in the L5 of the mPFC in acute slices from BTBR mice treated with 5AV, Taurine, or control. FIG. 8B illustrates effects on amplitude and frequency of mIPSCs in pyramidal neurons in the L5 of the mPFC in acute slices from BTBR mice treated with 5AV, Taurine, or control. Hypotheses for FIGS. 8A-B were tested by ANOVA on trimmed means (10%) and subsequent post-hoc tests. FIG. 8C illustrates effects on excitability of pyramidal neurons in the L5 of the mPFC in acute slices from BTBR mice treated with 5AV, Taurine, or control in response to step-wise injection current, as measured by the number of action potential spikes. 2-way ANOVA.

NCCCCC(=O)O [5AV, 5-Aminovaleric acid]
ASD-related behaviors, administration post weaning (BTBR mice): did not rescue behavioral alterations; also recorded: no effects on ASD-related behaviors; also recorded: did not have these effects
ASD-related behaviors / symptoms, prenatal administration (BTBR mice): significant improvement in ASD-related behaviors; also recorded: ameliorate ASD-related behavioral deficits; also recorded: reduces and/or prevents symptoms of ASD
expression of isoforms of Tip12 and Pogz [1]: marginal effects
expression of the lncRNAs Gm17259 and Gm13016 in the STR ([1]; striatum): increased
expression of transcripts of Neurexin 1 in the STR ([1]; striatum): increased in expression
mEPSC amplitude [2]: induced a decrease in mEPSC amplitude, it was not statistically significant
other effects on neuron activity (mIPSCs, excitability; FIGS. 8B-E) [2]: not otherwise observed

NCCS(=O)(=O)O [taurine]
ASD-related behaviors, administration post weaning (BTBR mice): did not rescue behavioral alterations; also recorded: did not have these effects
ASD-related behaviors, administration post weaning (BTBR mice; listed as Taurine): no effects on ASD-related behaviors
ASD-related behaviors / symptoms, prenatal administration (BTBR mice): significant improvement in ASD-related behaviors; also recorded: reduces and/or prevents symptoms of ASD
ASD-related behaviors / symptoms, prenatal administration (BTBR mice; listed as Taurine): ameliorate ASD-related behavioral deficits
expression of isoforms containing a A3SS event in Gigyf2 [1]: increases the expression
expression of the lncRNAs Gm17259 and Gm13016 in the STR ([1]; striatum): increased
other effects on neuron activity (mIPSCs, excitability; FIGS. 8B-E) [2]: not otherwise observed
